Consider one compound from patent US20220339135A1, “COMPOSITIONS AND METHODS FOR MODULATING AN INFLAMMATORY RESPONSE” (Enzychem Lifesciences Corporation, priority 2019, published 2022).

In data set [1] the test system is RIPK1, RIPK3, MLKL in THP-1 cells. In words: MSU-induced phosphorylation of RIPK1, RIPK3, MLKL, western blot. Type of data set: cell-based, human. Here is the method:
(A) THP-1 cells were pre-incubated with PLAG (100 μg/mL) for an hour and then stimulated with MSU crystal (400 μg/mL). After 0, 7, 15, 30, 60 minutes, cells were harvested. (B) THP-1 cells were pre-incubated with PLAG (1, 10, 100 μg/mL) for 1 hour and then stimulated with MSU crystal (400 μg/mL). After 1 h, cells were harvested. THP-1 cells were lysis with 1×RIPA lysis buffer containing the protease inhibitor (Roche, Basel, Switzerland) and phosphatase inhibitor (Thermo Scientific, MA, USA) on ice for 30 min. The cell lysates were clarified by centrifugation (13,000 rpm, 4° C., 30 min), and the protein quantity from each sample was examined by Bradford assay (Bio-Rad). Proteins from each sample were separated by sodium dodecyl sulfate-polyacrylamide gel electrophoresis on 12% polyacrylamide gels and the proteins were blotted onto a PVDF membrane (Millipore Corporation, Germany). The membrane was blocked with 5% non-fat dried milk (BD bioscience) in PBS containing 0.05% Tween-20 (Calbiochem) for 1 hour. The membrane was incubated with anti-phospho-RIPK3 (abcam), RIPK3 (novusbio), p-MLKL (abcam), MLKL (Sigma), p-RIP (Cell Signaling Technology), RIPK1 (R&D System) and β-actin (Cell Signaling Technology) at 4° C. overnight. […] Target proteins were detected with Immobilon Western Chemiluminescent HRP Substrate (Millipore Corporation).
In general terms: In western blotting, separated proteins are transferred to a membrane and probed.

Data set [2] has as its system intracellular ROS in BMDMs and THP-1 cells. In words: Gemcitabine-induced intracellular ROS measurement. Format: cell-based. To be noted: gemcitabine 10 μg/mL 3 h, dose-dependent. Here is the method:
A total of 1×10^6 BMDMs and THP-1 were seeded, cultured, and subsequently exposed to various concentrations of PLAG with gemcitabine (10 μg/mL) for 3 h. The cells were then incubated with the ROS-sensitive probe CM-H2DCFDA (Invitrogen™) for 30 min at 37° C. in the dark. After incubation, the cells were washed 3 times with PBS and immediately analyzed using FACS verse (BD biosciences) with an excitation/emission peak at 495/527 nm. A total of 10,000 cells were counted in each determination, and results presented are means±S.E. of three independent experiments. Intracellular ROS production was also measured with a confocal laser scanning microscope (Zeiss LSM 800, Oberkochen, Germany). After incubating CM-H2DCFDA as above, the cells were fixed with 4% paraformaldehyde for 30 min and washed 3 times with PBS before photographing. The excitation and emission wavelengths were identical as described above, and a minimum of 5 random fields was captured for each culture.

The test system of data set [3] is chemotherapy-induced neutropenia. In words: Chemotherapy-induced neutropenia in pancreatic cancer patients. Type of data set: in vivo, human. The text has this: From January 2014 to September 2014, 16 patients with histologically or cytologically confirmed unresectable pancreatic cancer were enrolled in this study. […] Historical controls were also recruited from Asan Medical Center from March 2012 to December 2013. The eligibility criteria for the control group were the same as those for cases who intake PLAG during gemcitabine-based chemotherapy. The control group (n=32) was matched to the PLAG group (n=16) based on age, performance status, chemotherapy cycle, comorbidity, and disease extent. This study was approved by a hospital institutional review board.
All patients received gemcitabine 1,000 mg/m^2 on days 1, 8, and 15 of each 4-week schedule and daily erlotinib at 100 mg orally. In the PLAG group, PLAG 500 mg was orally administered twice daily from the start of the chemotherapy to the completion. Hematology and serum chemistry analyses were performed at screening baseline, then weekly until the end of the study. Febrile neutropenia (FN) was defined as an ANC of less than 1,000/mm^3 and an oral temperature of more than 38° C. on the same day or the following day after chemotherapy. If on the day of chemotherapy administration, a patient's ANC was reduced to 500-1,000/mm^3 or if the absolute platelet count was reduced to 50,000-100,000/mm^3, the gemcitabine dose was reduced by 75%. Gemcitabine was omitted for 1 week if the neutrophil count was lower than 500/mm^3, or the absolute platelet count was lower than 50,000/mm^3. […] Erlotinib dose was interrupted in patients within tolerable rash and was reduced or discontinued if symptoms persisted for 10-14 days. Erlotinib dose was reduced for grade 2 diarrhea persisting for 48-72 h and for grade 3 diarrhea following resolution to grade 1; erlotinib was permanently discontinued for grade 4 diarrhea. Treatment continued until disease progression unacceptable toxicity, withdrawal of patient's consent or physician's decision. Safety was evaluated throughout the entire study. Toxicity was graded based on the NCI Common Terminology Criteria for Adverse Events (CTCAE) version 3.0.
The primary endpoint was neutropenia, and the secondary endpoint was a safety profile. All analyses were performed using SPSS version 17.0 (SPSS Inc., Chicago, Ill., USA). Descriptive statistics were used to evaluate demographics, and safety data continuous variables were compared using the Mann-Whitney U test, paired t-test, and independent T-test. A P value of <0.05 was considered statistically significant.

On to `CCCCC/C=C\C/C=C\CCCCCCCC(=O)OC(COC(C)=O)COC(=O)CCCCCCCCCCCCCCC` (racemic) [PLAG, 1-palmitoyl-2-linoleoyl-3-acetylglycerol], for which the “MSU-induced phosphorylation of RIPK3 and MLKL” value in data set [1] (PLAG 100 μg/mL, time course) is given as “accelerated”. Besides, the “MSU-induced phosphorylation of RIPK1 and RIPK3” value in data set [1] (PLAG 1, 10, 100 μg/mL, dose-dependent) is recorded as “modulated”. The “gemcitabine-induced intracellular ROS production” value in data set [2] was “effectively reduced”. For the same compound, in data set [3] (PLAG 500 mg orally twice daily with gemcitabine + erlotinib, n=16), the “incidence of neutropenia (ANC<1,500/mm^3, grade 2-4)” value is given as 37.5%. In data set [3] (PLAG group), the “ANC nadir (relative to baseline)” value is on record as “about 0.75” and the “febrile neutropenia (FN)” value is given as “did not occur”. Also, the “severe neutropenia (ANC<500/mm^3, grade 4)” value in data set [3] (PLAG group vs control group) was “developed only in the control group”. The “adverse events related to PLAG during chemotherapy” value in data set [3] (including nausea/vomiting, bone pain, fatigue, liver dysfunction) is recorded as “no adverse events related to PLAG”. For the same compound, the “decrease of ANCs from the baseline level” value in data set [3] (vs control group, P<0.05) is reported as “decreased significantly less”.
